In patent US20090005248A1, “SYNERGISTIC HERBICIDAL COMPOSITION CONTAINING A SUBSTITUTED PHENOXY ALKANOIC ACID DERIVATIVE AND A GLYPHOSATE DERIVATIVE” (Dow AgroSciences LLC, priority 2007, published 2009):

Columns and labels:
Format in all cases: in vivo
[1] = tested on: glyphosate-resistant horseweed (ERICA, Conyza canadensis); assay: Field study at Church Hill, Md., percent visual control of glyphosate-resistant horseweed; conditions: 29 days after application
Description: (§1) The expected growth reduction of plant species from the combination of herbicides was calculated utilizing the Colby equation:
(§2) Expected growth reduction (E)=X+Y−(X*Y/100)
(§3) where X is % of growth reduction of a weed at a given concentration of a herbicide (or herbicide formulation) and Y is the % growth reduction of the same species and size weed at a given concentration of an independent herbicide (or herbicide formulation).
A field study was conducted at Church Hill, Md. where glyphosate-resistant horseweed (ERICA, Conyza canadensis) had been observed for 2-3 years prior to the start of this study. The study design was a split-plot with 4 replications per treatment and each plot was 3.048 M wide and 9.144 M long. The environmental conditions at the time of application were as follows: air temperature, 22° C.; wind speed, 6 kph; wind direction, south; releative humidity, 85%; cloud cover, 80%; target foliage moisture, none; soil moisture, moist; soil temperature at 5 cm depth, 21° C. The treatments were applied using a backpack CO2 sprayer, with six XR8003 flat fan nozzles spaced 46 cm apart (boom length: 2.76 M) and held 40 cm above the plant canopy. The sprayer was operated at 103 kPa and 4.8 kilometers per hour to deliver 187 L of water per hectare. At the time of applications the glyphosate-resistant horseweed were 30-38 cm tall and there were between 10 and 20 plants per square meter (m^2). The percent visual control of glyphosate-resistant horseweed was rated over the entire plot (27.87 m^2) 29 days after application. In each plot between 278 and 557 glyphosate-resistant horseweed plants were rated, collectively, for percent visual control.

[2] = tested on: prickly sida (Sida spinosa; SIDSP); assay: Greenhouse foliar application, visual herbicidal activity on SIDSP; conditions: 2,4-D 140 g ae/ha alone, 14 to 21 days after application
Text: (§4) 2,4-D (dimethylamine salt), dichlorprop (potassium salt) and Glyphomax XRT® herbicide (isopropylamine salt) alone and in combinations were applied to the foliage of rapidly growing plant material utilizing a track sprayer calibrated to deliver an application volume of 187 L/ha. Treated plant material was maintained in a greenhouse that provided a 16-hr photoperiod, supplemented with metal halide-generated light, set to provide a minimum of 500 μmolm^−2s^−1. The greenhouse was maintained at a temperature of 26 to 28° C. and a relative humidity of 50 to 70%. Assessment of herbicidal activity was performed visually 14 to 21 days after application.
as §1, §2, §3

[3] = tested on: ivyleaf morning glory (Ipomoea hederacea; IPOHE); assay: Greenhouse foliar application, visual herbicidal activity on IPOHE; conditions: 14 to 21 days after application
Text: as §4, §1, §2, §3

[4] = tested on: common ragweed (Ambrosia artemesifolia; AMBEL); assay: Greenhouse foliar application, visual herbicidal activity on AMBEL; conditions: 14 to 21 days after application
Text: as §4, §1, §2, §3

[5] = tested on: common waterhemp (Amaranthus rudis; AMATA); assay: Greenhouse foliar application, visual herbicidal activity on AMATA; conditions: 14 to 21 days after application
Text: as §4, §1, §2, §3

[6] = tested on: velvetleaf (Abutilon theophrasti; ABUTH); assay: Greenhouse foliar application, visual herbicidal activity on ABUTH; conditions: 14 to 21 days after application
Text: as §4, §1, §2, §3

[7] = tested on: glyphosate-susceptible Conyza canadensis (ERICA); assay: Greenhouse foliar application, visual herbicidal activity on glyphosate-susceptible ERICA; conditions: 14 to 21 days after application
Text: as §4, §1, §2, §3

[8] = tested on: hemp sesbania (Sesbania exaltata; SEBEX); assay: Greenhouse foliar application, visual herbicidal activity on SEBEX; conditions: 14 to 21 days after application
Text: as §4, §1, §2, §3

[9] = tested on: field bindweed (Polygonum convolvulus; POLCO); assay: Greenhouse foliar application, visual herbicidal activity on POLCO; conditions: 14 to 21 days after application
Text: as §4, §1, §2, §3

[10] = tested on: spiderwort (Commelina benghalensis; COMBE); assay: Greenhouse foliar application, visual herbicidal activity on COMBE; conditions: 14 to 21 days after application
Text: as §4, §1, §2, §3

[11] = tested on: Canada thistle (Cirsium arvense; CIRAR); assay: Greenhouse foliar application, visual herbicidal activity on CIRAR; conditions: 14 to 21 days after application
Text: as §4, §1, §2, §3

[12] = tested on: glyphosate-resistant Conyza canadensis (ERICA); assay: Greenhouse foliar application, visual herbicidal activity on glyphosate-resistant ERICA; conditions: 14 to 21 days after application
Text: as §4, §1, §2, §3

## O=C(O)COc1ccc(Cl)cc1Cl [2,4-D, 2,4-dichlorophenoxy acetic acid]
[1]; 2,4-D 280 g ae/ha alone
  Actual Injury (% growth reduction): 12.5 % growth reduction
[1]; 2,4-D 560 g ae/ha alone
  Actual Injury (% growth reduction): 23.0 % growth reduction
[1]; 2,4-D 1120 g ae/ha alone
  Actual Injury (% growth reduction): 36.3 % growth reduction
[2]
  Actual Injury (% growth reduction): 17 % growth reduction
[3]; 2,4-D 70 g ae/ha alone
  Actual Injury (% growth reduction): 17 % growth reduction
[4]; 2,4-D 140 g ae/ha alone
  Actual Injury (% growth reduction): 61 % growth reduction
[5]; 2,4-D 280 g ae/ha alone
  Actual Injury (% growth reduction): 53 % growth reduction
[6]; 2,4-D 280 g ae/ha alone
  Actual Injury (% growth reduction): 28 % growth reduction
[7]; 2,4-D 35 g ae/ha alone
  Actual Injury (% growth reduction): 47 % growth reduction
[8]; 2,4-D 280 g ae/ha alone
  Actual Injury (% growth reduction): 37 % growth reduction
[9]; 2,4-D 280 g ae/ha alone
  Actual Injury (% growth reduction): 32 % growth reduction
[10]; 2,4-D 140 g ae/ha alone
  Actual Injury (% growth reduction): 48 % growth reduction
[11]; 2,4-D 280 g ae/ha alone
  Actual Injury (% growth reduction): 38 % growth reduction
[12]; 2,4-D 70 g ae/ha alone
  Actual Injury (% growth reduction): 38 % growth reduction

## CC(Oc1ccc(Cl)cc1Cl)C(=O)O (stereo not drawn) [Dichlorprop, 2,4-dichlorophenoxy propionic acid]
[3]; Dichlorprop 70 g ae/ha alone
  Actual Injury (% growth reduction): 68 % growth reduction
[4]; Dichlorprop 280 g ae/ha alone
  Actual Injury (% growth reduction): 58 % growth reduction
[5]; Dichlorprop 280 g ae/ha alone
  Actual Injury (% growth reduction): 48 % growth reduction
[6]; Dichlorprop 70 g ae/ha alone
  Actual Injury (% growth reduction): 33 % growth reduction
[7]; Dichlorprop 210 g ae/ha alone
  Actual Injury (% growth reduction): 43 % growth reduction
[8]; Dichlorprop 140 g ae/ha alone
  Actual Injury (% growth reduction): 38 % growth reduction
[9]; Dichlorprop 140 g ae/ha alone
  Actual Injury (% growth reduction): 38 % growth reduction
[10]; Dichlorprop 70 g ae/ha alone
  Actual Injury (% growth reduction): 80 % growth reduction
[11]; Dichlorprop 70 g ae/ha alone
  Actual Injury (% growth reduction): 48 % growth reduction
[12]; Dichlorprop 210 g ae/ha alone
  Actual Injury (% growth reduction): 43 % growth reduction
